Drawing on patent publication US6716978B2, “Therapeutically active compounds based on indazole bioisostere replacement of catechol in PDE4 inhibitors” (Pfizer Inc, priority 1997, dated 2004), this text covers melting point for two compounds.

Each structure is given as a SMILES string.

With `CCc1nn(-c2ccc(F)cc2)c2cc(Br)ccc12` [Example 20, 6-Bromo-3-ethyl-1-(4-fluorophenyl)-1H-indazole], the melting point (usually the temperature of the solid-liquid transition) fell in the range of 72 to 73 °C. Compound `CCc1nn(-c2ccc(F)cc2)c2cc(C3=CCC(C(=O)O)CC3)ccc12` (centres unmarked) [Example 24, 4-(3-ethyl-1-(4-fluorophenyl)-1H-indazol-6-yl)-cyclohex-3-ene-carboxylic acid] registered a melting point of 214 to 216 °C.
